Measurements taken from US10376520B2, “Methods for the treatment of cardiovascular disorders” (Galapagos NV, priority 2015, dated 2019).

Tests used:
Format in all cases: in vivo, human
RA patients [1] = experiment: Plasma PCSK9 concentration (ELISA), Study 4; settings: for PCSK9 level, 4 weeks CFB: 4 weeks change from baseline
Method: (§1) Randomized double-blind, placebo-controlled add on study in subjects with active RA who have an inadequate response to MTX monotherapy, in combination with methotrexate, administered for 4 weeks in the treatment of subjects with active rheumatoid arthritis who have an inadequate response to methotrexate alone.
(§2) Compound 1 (dosed as a [Compound 1:HCl:3H2O]) capsules administered orally in 30 mg, 75 mg, 150 mg, or 300 mg doses per day for 4 weeks.
Plasma PCSK9 concentration was determined using a commercial available ELISA kit from R&D systems (614 McKinley Place NE, Minneapolis, Minn. 55413, USA) according to manufacturer's instruction. Catalogue number DPC900, lot number used: 321050.

RA patients [2] = experiment: Plasma ApoC-III concentration (ELISA), Study 4; settings: for ApoC-III level, 4 weeks CFB: 4 weeks change from baseline
Method: as §1, §2
Plasma ApoC-II and ApoC-III concentrations are determined using commercial available ELISA kits from Abnova (9th Floor, No. 108, Jhouzih St., Neihu District. Taipei City, 114, Taiwan) according to manufacturer's instruction. apoC2: catalogue number KA0464, lot number used: 08871403. apoC3: catalogue number KA0465, lot number used: 02961525.

RA patients [3] = experiment: Plasma CETP concentration (ELISA), Study 4; settings: for CETP level, 4 weeks CFB: 4 weeks change from baseline
Method: as §1, §2
Plasma CETP concentration was determined using a commercial available ELISA kit from Alpco (26-G Keewaydin Drive, Salem, N.H. 03079 USA) according to manufacturer's instruction. Catalogue number 47-CETH-E01, lot number used: 812RCL.

RA patients [4] = experiment: Plasma total cholesterol level (Selectra autoanalyzer), Study 4; settings: for Total cholesterol level, 4 weeks CFB: 4 weeks change from baseline
Method: as §1, §2
Triglycerides, [HDL] cholesterol, and plasma cholesterol were measured on the Selectra autoanalyzer (Sopachem BV, 44-RI Straat 33, 4051 AP Ochten, The Netherlands). All assays were commercially available from DiaSys Diagnostic Systems GmbH, Alte Strasse 9, 65558 Holzheim, Germany. […]

SMILES: O=C(Nc1nc2cccc(-c3ccc(CN4CCS(=O)(=O)CC4)cc3)n2n1)C1CC1 [Compound 1, cyclopropanecarboxylic acid {5-[4-(1,1-dioxo-thiomorpholin-4-ylmethyl)-phenyl]-[1,2,4]triazolo[1,5-a]pyridin-2yl}-amide]
- PCSK9 level, 4 weeks CFB (RA patients [1]; 30 mg q.d.): 6.8%
- PCSK9 level, Baseline (RA patients [1]; 30 mg q.d.): 282.1 ng/mL
- PCSK9 level, week 4 (RA patients [1]; 30 mg q.d.): 296.9 ng/mL
- PCSK9 level, 4 weeks CFB (RA patients [1]; 75 mg q.d.): 11.4%
- PCSK9 level, Baseline (RA patients [1]; 75 mg q.d.): 277.0 ng/mL
- PCSK9 level, week 4 (RA patients [1]; 75 mg q.d.): 292.4 ng/mL
- PCSK9 level, 4 weeks CFB (RA patients [1]; 150 mg q.d.): 11.6%
- PCSK9 level, Baseline (RA patients [1]; 150 mg q.d.): 264.4 ng/mL
- PCSK9 level, week 4 (RA patients [1]; 150 mg q.d.): 294.6 ng/mL
- PCSK9 level, 4 weeks CFB (RA patients [1]; 300 mg q.d.): 10.4%
- PCSK9 level, Baseline (RA patients [1]; 300 mg q.d.): 261.7 ng/mL
- PCSK9 level, week 4 (RA patients [1]; 300 mg q.d.): 291.2 ng/mL
- ApoC-III level, 4 weeks CFB (RA patients [2]; 30 mg q.d.): 4.6%
- ApoC-III level, week 4 (RA patients [2]; 30 mg q.d.): 78.6 ng/mL
- ApoC-III level, 4 weeks CFB (RA patients [2]; 75 mg q.d.): 17.6%
- ApoC-III level, week 4 (RA patients [2]; 75 mg q.d.): 79.6 ng/mL
- ApoC-III level, 4 weeks CFB (RA patients [2]; 150 mg q.d.): 9.6%
- ApoC-III level, week 4 (RA patients [2]; 150 mg q.d.): 82.7 ng/mL
- ApoC-III level, 4 weeks CFB (RA patients [2]; 300 mg q.d.): 27.9%
- ApoC-III level, week 4 (RA patients [2]; 300 mg q.d.): 88.2 ng/mL
- CETP level, 4 weeks CFB (RA patients [3]; 30 mg q.d.): 2.4%
- CETP level, Baseline (RA patients [3]; 30 mg q.d.): 3.2 µg/mL
- CETP level, week 4 (RA patients [3]; 30 mg q.d.): 3.2 µg/mL
- CETP level, 4 weeks CFB (RA patients [3]; 75 mg q.d.): −2.8%
- CETP level, Baseline (RA patients [3]; 75 mg q.d.): 2.8 µg/mL
- CETP level, week 4 (RA patients [3]; 75 mg q.d.): 2.7 µg/mL
- CETP level, 4 weeks CFB (RA patients [3]; 150 mg q.d.): −11.4%
- CETP level, Baseline (RA patients [3]; 150 mg q.d.): 2.8 µg/mL
- CETP level, week 4 (RA patients [3]; 150 mg q.d.): 2.3 µg/mL
- CETP level, 4 weeks CFB (RA patients [3]; 300 mg q.d.): −10.2%
- CETP level, Baseline (RA patients [3]; 300 mg q.d.): 2.5 µg/mL
- CETP level, week 4 (RA patients [3]; 300 mg q.d.): 2.2 µg/mL
- Total cholesterol level, 4 weeks CFB (RA patients [4]; 30 mg q.d.): 25.9%
- Total cholesterol level, Baseline (RA patients [4]; 30 mg q.d.): 4.9 mM
- Total cholesterol level, week 4 (RA patients [4]; 30 mg q.d.): 5.8 mM
- Total cholesterol level, 4 weeks CFB (RA patients [4]; 75 mg q.d.): 5.2%
- Total cholesterol level, Baseline (RA patients [4]; 75 mg q.d.): 4.9 mM
- Total cholesterol level, week 4 (RA patients [4]; 75 mg q.d.): 5.1 mM
- Total cholesterol level, 4 weeks CFB (RA patients [4]; 150 mg q.d.): −1.2%
- Total cholesterol level, Baseline (RA patients [4]; 150 mg q.d.): 5 mM
- Total cholesterol level, week 4 (RA patients [4]; 150 mg q.d.): 5 mM
- Total cholesterol level, 4 weeks CFB (RA patients [4]; 300 mg q.d.): 19.4%
- Total cholesterol level, Baseline (RA patients [4]; 300 mg q.d.): 4.7 mM
- Total cholesterol level, week 4 (RA patients [4]; 300 mg q.d.): 5.7 mM
